Read-outs that look alike come from different tables or passages of the source.

Data set [1] concerns aromatase activity in skin fibroblasts. The experiment in a line: Stimulation of fibroblast aromatase by pre-incubating cultured skin fibroblasts with hormones (tritiated water release assay). Type of data set: cell-based, human. The settings on record: for fold induction at 0.01 µM: Homo sapiens, Skin fibroblast. Here is the method:
(§1) In a preliminary study to investigate the above hypothesis we have measured aromatase activity in cultured human hair follicle dermal papilla cell lines and non-follicular skin fibroblasts from body sites with different responses to androgens. Aromatase was measured using the tritiated water released assay (13). The results are summarised as follows:
Fibroblast aromatase was stimulated by pre-incubating cells with testosterone at physiological concentrations (10 nmol). 19 cell lines were studied. Mean fold increase in aromatase activity (+/- SEM) was 2.69+/-0.38 (p<0.02 paired test). In separate experiments on three cell lines the response to a range of concentrations of testosterone and DHT was studied. Testosterone gave a twofold increase in aromatase maximal at 10 nmol. At the same concentration in response to DHT was over twice as great (4.3 fold).
Fibroblast aromatase was stimulated by pre-incubating the cells with testosterone at a physiological concentration (10 nmol). 19 cell lines were studied. Mean fold increase in aromatase activity (+/- SEM) was 2.69+/-0.38 (p<0.02 paired t test). In separate experiments on three cell lines the response to a range of concentrations of testosterone and DHT was studied. Testosterone gave a 2 fold increase in aromatase maximal at 10 nmol. At the same concentration the response to DHT was over twice as great (4.3 fold).

In a further data set the test system is balding. The settings on record: topical application, humans; cited from earlier work.
In another data set the test system is female hair loss. The note with it: several small trials, taken orally; cited from earlier work.
Data set [2] deals with T1, aromatase (Homo sapiens, UniProt P11511).
T1 sequence (P11511 1-503): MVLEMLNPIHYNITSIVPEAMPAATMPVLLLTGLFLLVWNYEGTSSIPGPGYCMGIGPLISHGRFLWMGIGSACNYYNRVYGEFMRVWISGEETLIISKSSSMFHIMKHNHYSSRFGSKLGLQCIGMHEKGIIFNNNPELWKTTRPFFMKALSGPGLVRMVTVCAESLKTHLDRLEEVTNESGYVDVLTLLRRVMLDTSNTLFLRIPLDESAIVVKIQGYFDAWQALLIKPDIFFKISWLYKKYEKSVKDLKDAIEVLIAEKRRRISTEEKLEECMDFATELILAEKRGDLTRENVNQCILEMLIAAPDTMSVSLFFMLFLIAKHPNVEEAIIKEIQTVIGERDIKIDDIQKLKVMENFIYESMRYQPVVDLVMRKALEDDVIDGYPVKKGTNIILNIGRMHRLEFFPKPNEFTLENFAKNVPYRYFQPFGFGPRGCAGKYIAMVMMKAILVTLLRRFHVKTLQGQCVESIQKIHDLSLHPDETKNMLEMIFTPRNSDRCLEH
In words: Aromatase activity by tritiated water release assay in cultured skin fibroblasts: substrate kinetics and inhibition.

For data set [3], the target named is T1, aromatase. The experiment in a line: Aromatase by tritiated water assay in minced scalp skin samples, with and without aromatase inhibitor. The data set is classed as biochemical. The note with it: addition of 25 nmol to minced scalp skin samples. Also noted: endogenous in cells; host or cells: cultured human non-follicular skin fibroblast lines (beard, occipital scalp, frontal scalp).

Data set [4] deals with aromatase activity in hair follicle dermal papilla cells. In words: Induction of aromatase in cultured hair follicle dermal papilla cells (tritiated water release assay). Type of data set: cell-based, human. Here is the method: as §1
No aromatase was detected in hair follicle dermal papilla cells cultured through any of the above sites (fourteen cell lines).
No aromatase was detected in hair follicle dermal papilla cells cultured from any of the above sites (14 cell lines).

Substrate in data set [5]: C[C@]12CCC(=O)C=C1CC[C@@H]1[C@@H]2CC[C@]2(C)C(=O)CC[C@@H]12
In words: cells, lysate or membranes. The note with it: other: skin fibroblast lines from beard, occipital scalp and frontal scalp; no difference between the three sites.

The mark [6] stands for this setting: read-out: Fold increase in aromatase.

Take `C[C@]12CCC(=O)C[C@@H]1CC[C@@H]1[C@@H]2CC[C@]2(C)[C@@H](O)CC[C@@H]12` [DHT, dihydrotestosterone]: in data set [1] (setting [6]), the fold induction at 0.01 µM was 4.3.
Regarding `Nc1cc(N2CCCCC2)nc(N)[n+]1[O-]` [Minoxidil], in the data set on balding, the “Subjects with modest recovery in early balding” value is “about 30 % of subjects”.
In the case of `CC(=O)O[C@]1(C(C)=O)CC[C@H]2[C@@H]3C=C(Cl)C4=CC(=O)[C@@H]5C[C@@H]5[C@]4(C)[C@H]3CC[C@@]21C` [cyproterone acetate], in data set [1] (skin fibroblasts, androgen receptor blockade), the “Effect on the aromatase response to testosterone and DHT” value is “inhibited”. Besides, the “Effect in female hair loss” value in the data set with female hair loss is given as “small positive affect”.
In general, IC50 refers to the concentration needed to halve the response being measured. A low value points to inhibition by little substance. As for `C[C@]12CCC(=O)C(O)=C1CC[C@@H]1[C@@H]2CC[C@]2(C)C(=O)CC[C@@H]12` [4-OH androstenedione], the IC50 against aromatase [2] is roughly 25 nM. On aromatase [2] (three cell lines), the “Type of inhibition of fibroblast aromatase (kinetic studies)” value is “irreversible competitive inhibition”. For the same molecule, on aromatase [3], the “Effect on aromatase activity in scalp tissue” value is listed as “reduced activity to background levels”.
Regarding `C[C@@H]1C[C@H]2[C@@H]3CCC4=CC(=O)C=C[C@]4(C)[C@@]3(F)[C@@H](O)C[C@]2(C)[C@@]1(O)C(=O)CO` [Dexamethasone], the “Stimulation of aromatase in fibroblasts” value in data set [1] (skin fibroblasts) was 10-20 fold. Also, in data set [4], the “Induction of aromatase in dermal papilla cells” value is “induced aromatase”.
On to `C[C@]12CC[C@H]3[C@@H](CCC4=CC(=O)CC[C@@]43C)[C@@H]1CC[C@@H]2O` [testosterone], for which the values for the fold induction at 0.01 µM in data set [1] (setting [6]) and in data set [1] (read-out: Mean fold increase in aromatase activity (+/- SEM)) were 2 and 2.69 ± 0.38, respectively. For the same molecule, the “Mean fold increase in aromatase activity (+/- SEM)” value in data set [1] (pre-incubation with 10 nmol, 19 fibroblast cell lines, p<0.02) is recorded as 2.69+/-0.38 fold. The “Fold increase in aromatase” value in data set [1] (separate experiments on three cell lines, range of concentrations, at 10 nmol (maximal for testosterone)) is “twofold”. The “Induction of aromatase in dermal papilla cells” value in data set [4] is recorded as “failed to induce aromatase”.

B1: aromatase (Homo sapiens) (protein)
chain: T1 sequence (P11511 1-503)
With B1, in data set [5], the Km was found to be 25 nmol.

Source of the values: patent publication US6020327A, “Control of hair growth” (The Central Sheffield University Hospitals NHS Trust, priority 1994, dated 2000).
